Reference: PMC9143821, “Design and Synthesis of a Novel 4-aryl-N-(2-alkoxythieno [2,3-b]pyrazine-3-yl)-4-arylpiperazine-1-carboxamide DGG200064 Showed Therapeutic Effect on Colon Cancer through G2/M Arrest” (Pharmaceuticals, 2022)
≈ marks a conversion by molar mass, not a printed value. Like-named read-outs stand apart in the source and are kept apart here.

Legend:
[1] = Pharmacokinetics in SD rats; format: in vivo; details: male, Sprague-Dawley, rat, plasma
Experimental: Sprague–Dawley rats (adult males, 250–300 g) were fasted overnight, and the femoral vein (for iv administration of the compound) and jugular vein (for blood sampling) of each rat were cannulated with polyethylene tubing. The selected compounds dissolved in 30% polyethylene glycol (PEG) in saline were administered either intravenously or orally. At various time points after administration, blood samples (0.5 mL) were collected from the jugular vein, transferred to heparin-coated tubes, centrifuged to separate off the plasma. The plasma was stored at −80 °C until assayed. Compound concentrations in plasma were determined by LC/MS/MS analysis (API4000 mass spectrometer, Applied Biosystem, Waltham, MA, USA). Pharmacokinetic parameters were analyzed using the WinNonlin software program. The area under the curve (AUC) was calculated using the trapezoidal rule extrapolated to infinity. The terminal elimination half-life, systemic clearance, and volume of distribution at steady state were determined. The extent of absolute oral bioavailability (F) was estimated by comparing the AUC values after intravenous and oral administration of the compounds.

HCT116 cells = assay: FACS analysis of cell cycle distribution; format: cell-based, human; details: HCT116, different concentrations, 6 h
Experimental: Many anticancer drugs induce apoptosis through programmed signaling in tumor cells. To test whether the newly developed 4-phenyl-N-(thieno[2,3-b]pyrazin-3-yl)piperazine-1-carboxamide derivatives could induce apoptosis, we conducted a FACS analysis of HCT116 cells with the representative compound 7c or DGG200064. Cell cycle distribution of HCT116 cells was investigated with different concentrations of DGG200064 for 6 h. […] Additionally, DGG200064 was tested for induced G2/M arrest in the other types of colon cancer cells in concentrations of 50 nM for 6 h (Figure 2b).
A colon cancer cells were trypsinized and fixed in 70% (vol/vol) ethanol for DNA staining. For cell cycle analysis, fixed cells were washed with PBS and subsequently resuspended in Propidium Iodide (PI)/RNase staining solution (0.05 mg/mL PI, 0.1 mg/mL RNase A in PBS). FACS analysis was performed using FACSCanto II (BD Biosciences, San Jose, CA, USA).

HCT116 and DLD1 cells = assay: Immunoblotting of cell cycle and FBXW7 substrate proteins; format: cell-based, human; details: 6 h
Experimental: HCT116 and DLD1 cells were exposed to increasing concentrations of DGG200064 (0, 10, 50, 100 nM) for 6 h. […] Moreover, there were increased levels of c-Jun by DGG200064 (50 nM) treatment in other 6-colon cancer cells (Figure S1, Supplementary Materials). c-Jun is a component of the transcription factor activator protein 1 (AP-1), which is activated by a variety of extracellular stimuli, such as growth factors and UV irradiation. In cancer cells, activation of c-Jun promotes down-stream target gene transcription, and it is involved in cell proliferation, growth, division, and apoptosis. […] To test whether DGG200064 could induce G2/M cell cycle arrest through the increasing of c-Jun level, the two genes were silenced using c-Jun siRNAs and treated with DGG200064 in HCT116 and DLD1 cells (Figure 3c). When c-Jun was silenced, the amount of cyclin B protein treated by DGG200064 decreased. […]
The whole-cell lysate was prepared using Radioimmunoprecipitation assay buffer (RIPA buffer) prepared in 50 mM Tris-HCl, pH 8.0, with 150 mM sodium chloride, 1.0% Igepal CA-630 (NP-40), 0.5% sodium deoxycholate, 0.1% sodium dodecyl sulfate, protease inhibitor cocktail, and phosphatase inhibitor cocktail. […] Membranes were washed five times with TBST, and chemiluminescence was detected using Westsave™ (Abfrontier, Seoul, Korea). […]

[2] = Maximum tolerated dose evaluation, 2 weeks; format: in vivo; details: 150 mg/kg oral administration, 2-week evaluation
[3] = Pharmacokinetics in ICR mice; format: in vivo; details: mouse, plasma, 5 mg/kg
Solubility (logS) = format: physicochemical; details: for solubility: thermodynamic from solid, read-out: Solubility (logS) Equilibrium (converted)
Description: Table 4 Physicochemical Properties of the Lead Compounds 7c. | column: 7c

**Q.** Which AUC(0-inf) ([1]; SD rats, IV, 1 mg/kg) does the source give for COc1cc(OC)cc(N2CCN(C(=O)Nc3nc4sccc4nc3OC)CC2)c1 [Compound 7c, 4-(3,5-Dimethoxyphenyl)-N-(2-methoxythieno[2,3-b]pyrazin-3-yl)piperazine-1-carboxamide] here?
**A.** 708 ng·h/mL

**Q.** And the AUC(0-t) ([1]; SD rats, IV, 1 mg/kg)?
**A.** 703 ng·h/mL

**Q.** What about the Cmax ([1]; SD rats, IV, 1 mg/kg) of the same compound?
**A.** 551 ng/mL

**Q.** What about the Tmax ([1]; SD rats, IV, 1 mg/kg) of the same compound?
**A.** 0.083 h

**Q.** And the clearance ([1]; SD rats, IV, 1 mg/kg)?
**A.** 25.2 mL/min/kg

**Q.** What about the half-life ([1]; SD rats, IV, 1 mg/kg) of the same compound?
**A.** 1.11 h

**Q.** And the Vd ([1]; SD rats, IV, 1 mg/kg, read-out: Vss)?
**A.** 2.31 L/kg

**Q.** And the AUC(0-inf) ([1]; SD rats, PO, 5 mg/kg)?
**A.** 964 ng·h/mL

**Q.** And the AUC(0-t) ([1]; SD rats, PO, 5 mg/kg)?
**A.** 707 ng·h/mL

**Q.** What about the Cmax ([1]; SD rats, PO, 5 mg/kg) of the same compound?
**A.** 76 ng/mL

**Q.** What about the Tmax ([1]; SD rats, PO, 5 mg/kg) of the same compound?
**A.** 4.05 h

**Q.** What about the half-life ([1]; SD rats, PO, 5 mg/kg) of the same compound?
**A.** 7.5 h

**Q.** And the bioavailability ([1]; SD rats, PO, 5 mg/kg, read-out: F)?
**A.** 20.1%

**Q.** What about the Cmax ([1]; no unit, species or route stated in b12 (7c value equals SD rats PO of Table 3)) of the same compound?
**A.** 76 ng/mL

**Q.** What about the bioavailability ([1]; species and route not stated in b12 (7c value equals SD rats PO of Table 3), read-out: bioavailability (F)) of the same compound?
**A.** 20.1%

**Q.** What about the G2/M arrest (HCT116 cells) of the same compound?
**A.** induced G/2M arrest in a dose-dependent manner

**Q.** What about the apoptosis (HCT116 cells) of the same compound?
**A.** did not cause apoptosis

**Q.** What about the “cyclin E and c-Myc levels” value (HCT116 and DLD1 cells; HCT116, 0, 10, 50, 100 nM) of the same compound?
**A.** not affected

**Q.** What about the “cyclin B1, c-Jun and p-c-Jun levels” value (HCT116 and DLD1 cells; HCT116 and DLD1, 0, 10, 50, 100 nM) of the same compound?
**A.** dose-dependent increase

**Q.** And the body weight [2]?
**A.** no loss of body weight

**Q.** What about the AUC(0-inf) ([3]; IV) of the same compound?
**A.** 16600 ng·h/mL

**Q.** And the AUC(0-t) ([3]; IV)?
**A.** 16400 ng·h/mL

**Q.** And the clearance ([3]; IV)?
**A.** 5.08 mL/min/kg

**Q.** What about the half-life ([3]; IV) of the same compound?
**A.** 2.98 h

**Q.** What about the AUC(0-inf) ([3]; PO) of the same compound?
**A.** 2340 ng·h/mL

**Q.** And the AUC(0-t) ([3]; PO)?
**A.** 2260 ng·h/mL

**Q.** What about the Cmax ([3]; PO) of the same compound?
**A.** 798 ng/mL

**Q.** What about the Tmax ([3]; PO) of the same compound?
**A.** 0.667 h

**Q.** What about the bioavailability ([3]; PO) of the same compound?
**A.** 13.8%

**Q.** What about the half-life ([3]; PO) of the same compound?
**A.** 5.2 h

**Q.** What about the solubility (Solubility (logS); pH 2, aqueous buffer, pH2.0) of the same compound?
**A.** 2090 µM (≈ 897 µg/mL)

**Q.** What about the solubility kinetic (Solubility (logS); pH 7.4, aqueous buffer, kinetic from dmso stock, pH7.4) of the same compound?
**A.** 741 µM (≈ 318 µg/mL)

**Q.** What about the solubility (Solubility (logS); pH 7.4, aqueous buffer, pH7.4) of the same compound?
**A.** 603 µM (≈ 259 µg/mL)

**Q.** And the solubility (Solubility (logS); pH 9, aqueous buffer, pH9.0)?
**A.** 617 µM (≈ 265 µg/mL)
